The values below come from patent US8252799B2, “Hexahydro-1H-4,7-methanoisoindole-1,3-dione compounds” (Merck Sharp & Dohme Corp., priority 2007, dated 2012).

For test [1], the target named is T1, D2 (Homo sapiens, UniProt P14416). Put plainly: Functional Potency (IC50) on Human Receptors: D2. The conditions noted are these: human receptor. It is filed as biochemical.
The next test addresses T2, 5HT1A (native) (Homo sapiens, UniProt P08908).
T2 construct: 5HT1A (native) 8 nM
T2 sequence (P08908 1-422): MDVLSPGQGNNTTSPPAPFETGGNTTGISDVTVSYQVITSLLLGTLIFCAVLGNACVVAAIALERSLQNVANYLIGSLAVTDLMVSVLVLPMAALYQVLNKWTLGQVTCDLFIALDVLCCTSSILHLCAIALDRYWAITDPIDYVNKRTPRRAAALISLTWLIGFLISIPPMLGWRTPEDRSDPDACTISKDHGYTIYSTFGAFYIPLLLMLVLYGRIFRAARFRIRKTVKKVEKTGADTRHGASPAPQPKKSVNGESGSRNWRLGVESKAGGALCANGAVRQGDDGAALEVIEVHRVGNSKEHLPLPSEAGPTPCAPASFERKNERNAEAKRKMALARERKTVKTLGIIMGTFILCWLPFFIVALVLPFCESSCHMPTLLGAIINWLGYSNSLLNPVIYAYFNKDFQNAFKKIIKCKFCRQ
Put plainly: In Vitro Affinity (Ki) on Human Receptors: 5HT1A (native). It counts as binding. The conditions noted are these: human receptor.

Test [2] concerns the target T3, D1 (Homo sapiens, UniProt P21728). As to the kind of experiment: Functional Potency (IC50) on Human Receptors: D1. It is filed as biochemical. The conditions noted are these: human receptor.
The target in test [3] is T4, hERG (Homo sapiens, UniProt Q12809). As to the kind of experiment: Functional Potency (IC50) on Human Receptors: hERG. It counts as biochemical. In general terms: hERG is a cardiac potassium channel; its block is linked to QT prolongation.
The target in test [4] is T5, 5HT2A (Homo sapiens, UniProt P28223). As to the kind of experiment: In Vitro Affinity (Ki) on Human Receptors: 5HT2A. It counts as binding. The conditions noted are these: human receptor.
Another test addresses T6, 5HT1A (Homo sapiens, UniProt P08908).
T6 sequence (P08908 1-422): T2 sequence (P08908 1-422)
As to the kind of experiment: Functional Potency on Human Receptors: 5HT1A. It counts as biochemical. The conditions noted are these: human receptor.

The target of the next test is T7, α1A (Homo sapiens, UniProt P35348).
T7 sequence (P35348 1-466): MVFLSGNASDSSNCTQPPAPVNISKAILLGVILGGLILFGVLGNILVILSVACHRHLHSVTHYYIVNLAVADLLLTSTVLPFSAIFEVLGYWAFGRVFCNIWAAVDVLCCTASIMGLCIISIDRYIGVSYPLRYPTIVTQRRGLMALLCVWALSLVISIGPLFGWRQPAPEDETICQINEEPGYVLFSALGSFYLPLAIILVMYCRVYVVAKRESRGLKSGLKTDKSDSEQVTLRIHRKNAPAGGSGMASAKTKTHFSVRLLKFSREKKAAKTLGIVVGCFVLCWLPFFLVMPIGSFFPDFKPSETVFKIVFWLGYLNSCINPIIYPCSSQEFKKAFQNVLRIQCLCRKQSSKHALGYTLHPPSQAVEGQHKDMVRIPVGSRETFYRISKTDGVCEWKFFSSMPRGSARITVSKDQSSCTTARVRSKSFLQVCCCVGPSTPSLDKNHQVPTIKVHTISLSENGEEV
Put plainly: In Vitro Affinity (Ki) on Human Receptors: α1A. It is filed as binding. The conditions noted are these: human receptor.

Test [5] concerns the target T8, 5HT2C (Homo sapiens, UniProt P28335). Put plainly: Functional Potency (IC50) on Human Receptors: 5HT2C. It is filed as biochemical. The conditions noted are these: human receptor.
The target in test [6] is T5, 5HT2A. As to the kind of experiment: Functional Potency (IC50) on Human Receptors: 5HT2A. It is filed as biochemical. The conditions noted are these: human receptor.
Test [7] concerns the target T1, D2. Put plainly: In Vitro Affinity (Ki) on Human Receptors: D2. It is filed as binding. The conditions noted are these: human receptor.
Test [8] has as its target T4, hERG. Put plainly: In Vitro Affinity (Ki) on Human Receptors: hERG. It counts as binding.
In test [9] the target is T9, α2C (Homo sapiens, UniProt P18825).
T9 sequence (P18825 1-462): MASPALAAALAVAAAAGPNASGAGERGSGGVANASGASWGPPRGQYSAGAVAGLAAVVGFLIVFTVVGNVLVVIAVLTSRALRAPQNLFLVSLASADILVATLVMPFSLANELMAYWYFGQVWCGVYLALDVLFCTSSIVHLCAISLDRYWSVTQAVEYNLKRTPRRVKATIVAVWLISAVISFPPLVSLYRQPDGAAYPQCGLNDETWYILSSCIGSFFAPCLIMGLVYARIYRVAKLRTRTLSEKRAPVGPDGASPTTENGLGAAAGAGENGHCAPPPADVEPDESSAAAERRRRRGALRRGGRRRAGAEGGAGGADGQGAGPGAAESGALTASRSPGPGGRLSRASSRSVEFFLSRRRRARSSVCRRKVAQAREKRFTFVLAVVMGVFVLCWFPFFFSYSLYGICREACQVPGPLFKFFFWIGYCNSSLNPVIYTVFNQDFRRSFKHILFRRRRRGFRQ
As to the kind of experiment: In Vitro Affinity (Ki) on Human Receptors: α2C. It counts as binding. The conditions noted are these: human receptor.

Another test has as its target D3 (Homo sapiens, UniProt P35462). As to the kind of experiment: In Vitro Affinity (Ki) on Human Receptors: D3. The conditions noted are these: human receptor. It counts as binding.
Test [10] has as its target T10, α2A (Homo sapiens, UniProt P08913).
T10 sequence (P08913 1-465): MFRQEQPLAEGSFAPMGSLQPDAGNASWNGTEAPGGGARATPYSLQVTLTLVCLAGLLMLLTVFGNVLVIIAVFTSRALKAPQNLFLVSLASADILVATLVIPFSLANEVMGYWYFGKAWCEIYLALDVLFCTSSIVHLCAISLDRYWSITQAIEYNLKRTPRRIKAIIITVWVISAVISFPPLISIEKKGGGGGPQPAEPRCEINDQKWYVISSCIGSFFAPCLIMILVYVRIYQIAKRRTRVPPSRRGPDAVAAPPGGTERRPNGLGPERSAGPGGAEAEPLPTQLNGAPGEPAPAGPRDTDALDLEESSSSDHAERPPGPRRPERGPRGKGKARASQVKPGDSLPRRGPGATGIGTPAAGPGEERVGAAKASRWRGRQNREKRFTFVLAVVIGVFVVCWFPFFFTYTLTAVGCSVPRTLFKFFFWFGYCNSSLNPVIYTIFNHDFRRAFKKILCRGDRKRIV
Put plainly: Functional Potency (IC50) on Human Receptors: α2A. It counts as biochemical. The conditions noted are these: human receptor.

Test [11] deals with T10, α2A. As to the kind of experiment: In Vitro Affinity (Ki) on Human Receptors: α2A. It counts as binding. The conditions noted are these: human receptor.
Test [12] deals with T8, 5HT2C. Put plainly: In Vitro Affinity (Ki) on Human Receptors: 5HT2C. The conditions noted are these: human receptor. It is filed as binding.
The target of a further test is T11, α1D (Homo sapiens, UniProt P25100).
T11 sequence (P25100 1-572): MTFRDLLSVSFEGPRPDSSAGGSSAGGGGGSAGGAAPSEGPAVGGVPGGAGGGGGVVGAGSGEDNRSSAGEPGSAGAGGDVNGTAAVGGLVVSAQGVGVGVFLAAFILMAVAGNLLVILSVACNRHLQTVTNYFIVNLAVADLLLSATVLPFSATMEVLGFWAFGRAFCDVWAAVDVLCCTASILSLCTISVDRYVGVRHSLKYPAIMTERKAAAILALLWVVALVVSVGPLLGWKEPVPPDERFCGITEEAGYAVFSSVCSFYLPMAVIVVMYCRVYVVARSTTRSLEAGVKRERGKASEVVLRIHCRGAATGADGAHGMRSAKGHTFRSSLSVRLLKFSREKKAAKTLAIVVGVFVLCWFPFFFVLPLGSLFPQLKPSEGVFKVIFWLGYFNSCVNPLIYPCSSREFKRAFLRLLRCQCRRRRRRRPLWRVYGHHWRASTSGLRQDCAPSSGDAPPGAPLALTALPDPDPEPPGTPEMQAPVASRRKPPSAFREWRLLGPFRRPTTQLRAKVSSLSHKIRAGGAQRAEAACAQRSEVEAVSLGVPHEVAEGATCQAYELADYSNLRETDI
As to the kind of experiment: In Vitro Affinity (Ki) on Human Receptors: α1D. It counts as binding. The conditions noted are these: human receptor.

The target in test [13] is T12, H1 (Homo sapiens, UniProt P35367). As to the kind of experiment: Functional Potency (IC50) on Human Receptors: H1. It is filed as biochemical. The conditions noted are these: human receptor.
In test [14] the target is T9, α2C. As to the kind of experiment: Functional Potency (IC50) on Human Receptors: α2C. It is filed as biochemical. The conditions noted are these: human receptor.
In test [15] the target is T12, H1. Put plainly: In Vitro Affinity (Ki) on Human Receptors: H1. It counts as binding. The conditions noted are these: human receptor.
The target of test [16] is T3, D1. Put plainly: In Vitro Affinity (Ki) on Human Receptors: D1. It counts as binding. The conditions noted are these: human receptor.

T12 sequence (P35367 whole entry): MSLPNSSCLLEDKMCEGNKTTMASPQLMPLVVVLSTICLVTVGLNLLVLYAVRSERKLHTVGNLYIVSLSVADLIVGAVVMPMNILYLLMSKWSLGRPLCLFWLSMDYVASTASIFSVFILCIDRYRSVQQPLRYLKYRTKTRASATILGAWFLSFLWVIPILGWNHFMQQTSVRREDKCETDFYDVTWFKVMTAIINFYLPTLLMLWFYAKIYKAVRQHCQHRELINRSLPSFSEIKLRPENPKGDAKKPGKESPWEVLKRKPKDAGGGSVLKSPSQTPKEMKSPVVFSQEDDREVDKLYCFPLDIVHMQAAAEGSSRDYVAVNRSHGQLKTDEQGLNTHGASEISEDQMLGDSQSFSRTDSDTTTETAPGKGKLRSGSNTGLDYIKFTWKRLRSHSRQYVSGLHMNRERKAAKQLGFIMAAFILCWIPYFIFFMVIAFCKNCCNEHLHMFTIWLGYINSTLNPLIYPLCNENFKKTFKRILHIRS
T5 sequence (P28223 whole entry): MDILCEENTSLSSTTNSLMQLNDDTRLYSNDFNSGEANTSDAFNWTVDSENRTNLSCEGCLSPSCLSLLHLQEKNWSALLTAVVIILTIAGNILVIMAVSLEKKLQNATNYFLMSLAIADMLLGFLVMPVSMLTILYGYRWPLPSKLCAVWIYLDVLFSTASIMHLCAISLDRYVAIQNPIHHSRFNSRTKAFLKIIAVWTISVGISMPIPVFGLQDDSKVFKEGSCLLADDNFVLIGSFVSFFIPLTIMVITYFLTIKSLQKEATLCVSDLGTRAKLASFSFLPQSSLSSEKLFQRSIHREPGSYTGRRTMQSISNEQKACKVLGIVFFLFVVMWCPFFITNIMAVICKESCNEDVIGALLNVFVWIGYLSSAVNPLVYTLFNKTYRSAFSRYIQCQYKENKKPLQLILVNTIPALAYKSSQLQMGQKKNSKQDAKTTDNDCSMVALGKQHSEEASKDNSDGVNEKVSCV
T1 sequence (P14416 whole entry): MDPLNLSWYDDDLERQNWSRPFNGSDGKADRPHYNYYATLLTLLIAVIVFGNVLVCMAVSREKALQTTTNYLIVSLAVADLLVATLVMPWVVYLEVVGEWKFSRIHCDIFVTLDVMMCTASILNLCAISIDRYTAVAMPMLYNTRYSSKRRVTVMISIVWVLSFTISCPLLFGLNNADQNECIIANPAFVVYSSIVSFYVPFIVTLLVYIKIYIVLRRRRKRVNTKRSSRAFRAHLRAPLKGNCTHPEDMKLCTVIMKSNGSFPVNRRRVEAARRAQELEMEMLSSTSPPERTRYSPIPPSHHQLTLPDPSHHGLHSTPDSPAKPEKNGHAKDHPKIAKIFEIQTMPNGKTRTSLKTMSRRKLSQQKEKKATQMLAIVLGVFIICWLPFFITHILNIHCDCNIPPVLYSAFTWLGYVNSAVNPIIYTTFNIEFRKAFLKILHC
T8 sequence (P28335 33-458): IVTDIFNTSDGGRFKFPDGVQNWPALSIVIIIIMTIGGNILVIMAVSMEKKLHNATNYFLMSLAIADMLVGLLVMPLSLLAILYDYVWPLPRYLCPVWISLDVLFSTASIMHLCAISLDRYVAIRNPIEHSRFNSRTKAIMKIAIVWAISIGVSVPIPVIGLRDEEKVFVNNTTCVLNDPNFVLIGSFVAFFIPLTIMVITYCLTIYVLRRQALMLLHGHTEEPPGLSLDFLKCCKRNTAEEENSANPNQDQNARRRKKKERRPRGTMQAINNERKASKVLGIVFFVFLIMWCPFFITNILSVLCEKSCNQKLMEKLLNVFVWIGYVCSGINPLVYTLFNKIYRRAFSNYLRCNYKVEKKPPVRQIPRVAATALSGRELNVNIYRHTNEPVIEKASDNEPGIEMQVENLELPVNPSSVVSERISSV
T3 sequence (P21728 whole entry): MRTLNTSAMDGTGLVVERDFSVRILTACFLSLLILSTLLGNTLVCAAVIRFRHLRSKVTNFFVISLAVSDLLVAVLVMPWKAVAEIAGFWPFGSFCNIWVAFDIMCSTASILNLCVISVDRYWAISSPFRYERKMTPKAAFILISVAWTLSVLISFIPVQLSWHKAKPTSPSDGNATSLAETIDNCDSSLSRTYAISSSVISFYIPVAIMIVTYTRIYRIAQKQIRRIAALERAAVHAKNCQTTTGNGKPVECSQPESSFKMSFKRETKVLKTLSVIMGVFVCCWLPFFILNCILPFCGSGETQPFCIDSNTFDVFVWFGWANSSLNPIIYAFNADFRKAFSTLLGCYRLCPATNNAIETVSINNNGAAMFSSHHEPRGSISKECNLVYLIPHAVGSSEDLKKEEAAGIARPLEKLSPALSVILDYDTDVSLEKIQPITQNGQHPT
T4 sequence (Q12809 whole entry): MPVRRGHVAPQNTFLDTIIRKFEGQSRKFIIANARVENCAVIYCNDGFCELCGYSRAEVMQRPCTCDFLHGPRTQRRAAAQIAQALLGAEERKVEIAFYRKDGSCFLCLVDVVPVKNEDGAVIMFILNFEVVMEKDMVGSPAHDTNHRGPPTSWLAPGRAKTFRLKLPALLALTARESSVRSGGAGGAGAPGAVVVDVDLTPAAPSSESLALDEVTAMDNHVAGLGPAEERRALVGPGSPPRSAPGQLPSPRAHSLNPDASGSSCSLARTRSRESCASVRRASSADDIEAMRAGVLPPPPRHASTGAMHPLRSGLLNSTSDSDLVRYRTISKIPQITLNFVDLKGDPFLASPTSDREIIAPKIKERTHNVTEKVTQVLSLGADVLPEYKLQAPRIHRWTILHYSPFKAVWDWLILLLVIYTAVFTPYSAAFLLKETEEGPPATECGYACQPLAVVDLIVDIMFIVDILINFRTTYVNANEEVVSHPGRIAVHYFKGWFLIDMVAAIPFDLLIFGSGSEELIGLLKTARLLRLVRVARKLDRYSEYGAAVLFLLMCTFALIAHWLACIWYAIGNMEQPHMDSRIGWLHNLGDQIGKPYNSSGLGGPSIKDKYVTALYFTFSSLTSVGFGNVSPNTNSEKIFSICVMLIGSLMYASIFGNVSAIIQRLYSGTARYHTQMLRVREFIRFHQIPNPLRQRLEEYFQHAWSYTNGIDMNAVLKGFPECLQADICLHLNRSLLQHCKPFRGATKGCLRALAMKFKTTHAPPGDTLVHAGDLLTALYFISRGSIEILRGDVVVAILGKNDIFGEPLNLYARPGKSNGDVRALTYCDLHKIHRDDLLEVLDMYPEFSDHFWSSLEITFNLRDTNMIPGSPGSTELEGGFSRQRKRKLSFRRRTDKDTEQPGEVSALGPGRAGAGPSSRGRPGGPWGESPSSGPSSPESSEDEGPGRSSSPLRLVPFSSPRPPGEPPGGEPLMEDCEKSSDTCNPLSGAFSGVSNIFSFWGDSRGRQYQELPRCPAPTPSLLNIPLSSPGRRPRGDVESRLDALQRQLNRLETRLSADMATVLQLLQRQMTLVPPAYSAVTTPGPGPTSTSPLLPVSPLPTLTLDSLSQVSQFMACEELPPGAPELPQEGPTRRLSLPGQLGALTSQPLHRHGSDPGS
D3, sequence (P35462 whole entry): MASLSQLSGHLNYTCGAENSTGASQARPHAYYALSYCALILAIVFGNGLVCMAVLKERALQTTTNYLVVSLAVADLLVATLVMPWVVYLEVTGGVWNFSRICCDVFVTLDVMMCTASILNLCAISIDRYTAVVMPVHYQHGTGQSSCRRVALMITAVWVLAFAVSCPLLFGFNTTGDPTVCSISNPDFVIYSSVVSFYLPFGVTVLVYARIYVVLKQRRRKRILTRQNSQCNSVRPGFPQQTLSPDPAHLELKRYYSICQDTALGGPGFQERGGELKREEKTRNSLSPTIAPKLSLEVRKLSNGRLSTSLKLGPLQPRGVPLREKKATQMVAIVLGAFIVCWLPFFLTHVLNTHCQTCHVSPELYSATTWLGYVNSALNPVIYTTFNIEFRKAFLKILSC

Take `C[C@@]1(O)CC2CC1[C@@H]1C(=O)N(CC3CCCC[C@H]3CN3CCN(c4nsc5ccccc45)CC3)C(=O)[C@H]21` (stereo in doubt) [(3aS,4S,5R,7S,7aR)-2-[((1R,2R)-2-{[4-(1,2-benzisothiazol-3-yl)piperazin-1-yl]methyl}cyclohexyl)methyl]-5-hydroxy-5-methylhexahydro-1H-4,7-methanoisoindole-1,3-dione]: the IC50 against D2 [1] was determined as 25 nM; against D1 [2], 1650 nM; at hERG [3], 4 µM; on 5HT2C [5], 1710 nM; against 5HT2A [6], 32 nM; against α2A [10], 1220 nM. The figures for the IC50 against H1 [13] and against α2C [14] were 3.1 µM and 160 nM, respectively. For the same compound, the inhibition constant Ki was 8 nM on 5HT1A (native); < 10 nM on 5HT2A [4]; 31 nM on α1A; 1 nM on D2 [7]; 644 nM at hERG [8]; 9 nM on α2C [9]. For the same compound, the Ki came to 2 nM at D3; 59 nM at α2A [11]; 16 nM at 5HT2C [12]; 82 nM on α1D; 371 nM at H1 [15]; 457 nM on D1 [16]. This compound gave an EC50 at 5HT1A of 98 nM. Besides, the “Functional Potency 5HT1A % max” value at 5HT1A (max response) was determined as 77%.

As a reminder, the IC50 is the point on the concentration scale where inhibition reaches its midpoint. A high value points to lower potency. Usually Ki stands for a measure of affinity in units of concentration, obtained from inhibition or displacement. The low end stands for tighter binding, the high end for weaker binding. By EC50 is commonly meant the midpoint of the concentration-response curve. Higher therefore signals a less potent agent.
